Laboratory results from ChEMBL document CHEMBL5357030, “Caged Xanthones and Biphenyls Isolated from the Tropical Plant Garcinia lateriflora” (J Nat Prod, 2024).
pIC50: −log10 of the molar value.

Experiments:
Format in all cases: functional, cell-based
[1] = Antiproliferative activity against human KB-VIN cells overexpressing p-gp assessed as inhibition of cell growth incubated for 72 hrs by SRB assay; conditions: KBVIN
[2] = test system: A549; test: Antiproliferative activity against human A549 cells assessed as inhibition of cell growth incubated for 72 hrs by SRB assay; conditions: A549, 72 h
[3] = test system: MDA-MB-231; test: Antiproliferative activity against triple negative human MDA-MB-231 cells assessed as inhibition of cell growth incubated for 72 hrs by SRB assay; conditions: MDA-MB-231, 72 h
[4] = test system: MCF7; test: Antiproliferative activity against HER2-negative human MCF7 cells assessed as inhibition of cell growth incubated for 72 hrs by SRB assay; conditions: MCF7, 72 h
[5] = test system: KB; test: Antiproliferative activity against human KB cells assessed as inhibition of cell growth incubated for 72 hrs by SRB assay

| Structure (SMILES) | pIC50 [1] | pIC50 [2] | pIC50 [3] | pIC50 [4] | pIC50 [5] |
| --- | --- | --- | --- | --- | --- |
| C=CC(C)(C)c1c2c(c(O)c3c1OC(C)(C)[C@H]1CCC(C)=C[C@@H]31)C(=O)[C@@H]1[C@@H](OC)[C@@H]3C[C@H]4C(C)(C)O[C@@](C/C=C(\C)C(=O)O)(C3=O)[C@@]14O2 | 5.28 | 5.25 | 5.24 | 5.19 | 5.28 |
| C=CC(C)(C)c1c2c(c(O)c3c1OC(C)(C)[C@H]1CCC(C)=C[C@@H]31)C(=O)C1=C[C@@H]3C[C@H]4C(C)(C)O[C@@](C/C=C(/C)C(=O)O)(C3=O)[C@@]14O2 | 5.40 | 5.52 | 5.54 | 5.49 | 5.74 |
| C=CC(C)(C)c1c2c(c(O)c3c1O[C@]14[C@H](C3=O)[C@@H](OC)[C@H]3C[C@H]1C(C)(C)O[C@@]4(C/C=C(\C)C(=O)O)C3=O)C=CC(C)(C)O2 | < 5.00 | < 5.00 | < 5.00 | 4.98 | 5.21 |
| C=CC(C)(C)c1c2c(c(O)c3c1OC(C)(C)[C@H]1CCC(C)=C[C@@H]31)C(=O)[C@@H]1[C@@H](O)[C@@H]3C[C@H]4C(C)(C)O[C@@](C/C=C(\C)C(=O)O)(C3=O)[C@@]14O2 | 5.24 | 5.21 | 5.19 | 5.17 | 5.28 |
| CC(=O)O[C@H]1C(=O)[C@@]2(C)[C@H]([C@H](OC(=O)c3ccccc3)[C@]3(O)C[C@H](OC(=O)[C@H](O)[C@@H](NC(=O)c4ccccc4)c4ccccc4)C(C)=C1C3(C)C)[C@]1(OC(C)=O)CO[C@@H]1C[C@@H]2O [PACLITAXEL] | 5.66 |  | 9.05 |  | > 10.00 |
| COc1cc(-c2ccc(O)c(CCC(C)CO)c2)cc(O)c1O (stereo not drawn) | < 5.00 | < 5.00 | < 5.00 | < 5.00 | < 5.00 |
| COc1cc(-c2ccc(O)c(C/C=C(/C)CO)c2)cc(O)c1O | < 5.00 | < 5.00 | < 5.00 | < 5.00 | < 5.00 |
| COc1cc(-c2ccc3c(c2)C=CC(C)(C)O3)cc(O)c1O | < 5.00 | < 5.00 | < 5.00 | < 5.00 | < 5.00 |
| C=CC(C)(C)c1c2c(c(O)c3c1OC(C)(C)[C@H]1CCC(C)=C[C@@H]31)C(=O)C1=C[C@@H]3C[C@H]4C(C)(C)O[C@@](C/C=C(\C)C(=O)O)(C3=O)[C@@]14O2 | 5.28 | 5.54 | 5.34 | 5.25 | 5.92 |
| COc1c(O)c(O)cc(-c2ccccc2)c1CC=C(C)C | < 5.00 | < 5.00 | < 5.00 | < 5.00 | < 5.00 |
| C=CC(C)(C)c1c2c(c(O)c3c1O[C@]14C(=C[C@@H]5C[C@H]1C(C)(C)O[C@@]4(C/C=C(\C)C(=O)O)C5=O)C3=O)C=CC(C)(C)O2 | 6.22 | 6.10 | 6.30 | 5.89 | 6.22 |
